Data as given in publication PMC5983371 (Experimental eye research, 2018).

Biological target: rhodopsin (light-activated, metarhodopsin II) (Bos taurus, UniProt P02699)
Experiment: UV/Visible extra Meta II stabilization assay
Assay type: binding

Chain of rhodopsin (light-activated, metarhodopsin II) (P02699 whole entry): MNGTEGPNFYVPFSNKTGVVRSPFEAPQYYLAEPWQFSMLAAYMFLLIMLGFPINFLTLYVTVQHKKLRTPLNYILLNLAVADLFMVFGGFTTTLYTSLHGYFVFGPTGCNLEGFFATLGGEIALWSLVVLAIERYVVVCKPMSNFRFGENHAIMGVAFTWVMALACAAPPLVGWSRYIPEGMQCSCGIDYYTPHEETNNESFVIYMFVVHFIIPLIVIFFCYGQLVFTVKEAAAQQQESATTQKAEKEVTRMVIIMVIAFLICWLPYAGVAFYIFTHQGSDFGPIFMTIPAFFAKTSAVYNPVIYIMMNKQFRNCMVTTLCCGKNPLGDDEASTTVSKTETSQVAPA

SMILES: C[C@H](CCC(=O)NCCS(=O)(=O)O)[C@H]1CC[C@H]2[C@@H]3[C@@H](O)C[C@@H]4C[C@H](O)CC[C@]4(C)[C@H]3CC[C@]12C [TUDCA, Tauroursodeoxycholic acid]
- EC50: 450 µM
